According to the supplement of paper PMC10307832:

What was measured:
Assay in all cases: relative viability (nuclei count vs DMSO), 5 days (fraction); higher = more cells survive
LCLC-97TM1 = test system: LCLC-97TM1
Method in brief: (§1)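 One day after seeding in 1536-well plates, lung cancer cell lines were dosed by pin tool. Dosing was either single-drug or a fixed anchor-drug dose plus five library-drug doses (not always all listed) in √10 steps. After 5 days, nuclei were stained in one fix-and-stain step and counted on 4× images, and relative viability is the nuclei count of treated wells over that of vehicle wells, given as the median of duplicate plates.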

BEN = test system: BEN
Method in brief: as §1

NCI-H2085 = test system: NCI-H2085
Method in brief: as §1

SW 1573 = test system: SW 1573
Method in brief: as §1

HOP-62 = test system: HOP-62
Method in brief: as §1

EPLC-272H = test system: EPLC-272H
Method in brief: as §1

PC-3 [JPC-3] = test system: PC-3 [JPC-3]
Method in brief: as §1

LOU-NH91 = test system: LOU-NH91
Method in brief: as §1

EKVX = test system: EKVX
Method in brief: as §1

NCI-H1975 = test system: NCI-H1975
Method in brief: as §1

NCI-H2087 = test system: NCI-H2087
Method in brief: as §1

HCC-827 = test system: HCC-827
Method in brief: as §1

HCC-44 = test system: HCC-44
Method in brief: as §1

NCI-H1666 = test system: NCI-H1666
Method in brief: as §1

NCI-H647 = test system: NCI-H647
Method in brief: as §1

201T = test system: 201T
Method in brief: as §1

NCI-H1437 = test system: NCI-H1437
Method in brief: as §1

H3255 = test system: H3255
Method in brief: as §1

COR-L 105 = test system: COR-L 105
Method in brief: as §1

NCI-H2126 = test system: NCI-H2126
Method in brief: as §1

LU99A = test system: LU99A
Method in brief: as §1

Question: Clc1ccc(Nc2nnc(Cc3ccncc3)c3ccccc23)cc1 [Vatalanib] + CC(C)C[C@H](NC(=O)[C@H](Cc1ccccc1)NC(=O)c1cnccn1)B(O)O [Bortezomib] (partner 0.002 µM) was tested. Which relative viability (LCLC-97TM1; first compound 0.04 µM) did it give?
Answer: 0.529

Question: And the relative viability (LCLC-97TM1; first compound 0.1265 µM)?
Answer: 0.523

Question: What about the relative viability (LCLC-97TM1; first compound 0.4 µM) of the same molecule?
Answer: 0.528

Question: And the relative viability (LCLC-97TM1; first compound 1.265 µM)?
Answer: 0.31

Question: And the relative viability (LCLC-97TM1; first compound 4 µM)?
Answer: 0.769

Question: What about the relative viability (BEN; first compound 0.04 µM) of the same molecule?
Answer: 0.851

Question: And the relative viability (BEN; first compound 0.1265 µM)?
Answer: 0.682

Question: What about the relative viability (BEN; first compound 0.4 µM) of the same molecule?
Answer: 0.906

Question: And the relative viability (BEN; first compound 1.265 µM)?
Answer: 0.665

Question: And the relative viability (BEN; first compound 4 µM)?
Answer: 0.806

Question: And the relative viability (NCI-H2085; first compound 0.04 µM)?
Answer: 1.07

Question: What about the relative viability (NCI-H2085; first compound 0.1265 µM) of the same molecule?
Answer: 0.952

Question: What about the relative viability (NCI-H2085; first compound 0.4 µM) of the same molecule?
Answer: 1.08

Question: What about the relative viability (NCI-H2085; first compound 1.265 µM) of the same molecule?
Answer: 0.995

Question: And the relative viability (NCI-H2085; first compound 4 µM)?
Answer: 0.947

Question: And the relative viability (SW 1573; first compound 0.04 µM)?
Answer: 1.15

Question: And the relative viability (SW 1573; first compound 0.1265 µM)?
Answer: 0.96

Question: And the relative viability (SW 1573; first compound 0.4 µM)?
Answer: 1.21

Question: What about the relative viability (SW 1573; first compound 1.265 µM) of the same molecule?
Answer: 0.972

Question: What about the relative viability (SW 1573; first compound 4 µM) of the same molecule?
Answer: 1.09

Question: What about the relative viability (HOP-62; first compound 0.04 µM) of the same molecule?
Answer: 0.977

Question: What about the relative viability (HOP-62; first compound 0.4 µM) of the same molecule?
Answer: 0.857

Question: And the relative viability (HOP-62; first compound 1.265 µM)?
Answer: 0.849

Question: What about the relative viability (HOP-62; first compound 4 µM) of the same molecule?
Answer: 1.09

Question: And the relative viability (EPLC-272H; first compound 0.04 µM)?
Answer: 1.08

Question: And the relative viability (EPLC-272H; first compound 0.1265 µM)?
Answer: 0.93

Question: What about the relative viability (EPLC-272H; first compound 0.4 µM) of the same molecule?
Answer: 0.843

Question: What about the relative viability (EPLC-272H; first compound 1.265 µM) of the same molecule?
Answer: 0.971

Question: And the relative viability (EPLC-272H; first compound 4 µM)?
Answer: 0.982

Question: And the relative viability (PC-3 [JPC-3]; first compound 0.04 µM)?
Answer: 0.785

Question: What about the relative viability (PC-3 [JPC-3]; first compound 0.1265 µM) of the same molecule?
Answer: 0.828

Question: What about the relative viability (PC-3 [JPC-3]; first compound 0.4 µM) of the same molecule?
Answer: 0.82

Question: And the relative viability (PC-3 [JPC-3]; first compound 1.265 µM)?
Answer: 0.856

Question: And the relative viability (PC-3 [JPC-3]; first compound 4 µM)?
Answer: 0.721

Question: What about the relative viability (LOU-NH91; first compound 0.04 µM) of the same molecule?
Answer: 0.491

Question: And the relative viability (LOU-NH91; first compound 0.1265 µM)?
Answer: 0.43

Question: What about the relative viability (LOU-NH91; first compound 0.4 µM) of the same molecule?
Answer: 0.464

Question: What about the relative viability (LOU-NH91; first compound 1.265 µM) of the same molecule?
Answer: 0.493

Question: What about the relative viability (LOU-NH91; first compound 4 µM) of the same molecule?
Answer: 0.468

Question: What about the relative viability (EKVX; first compound 0.04 µM) of the same molecule?
Answer: 1.1

Question: And the relative viability (EKVX; first compound 0.1265 µM)?
Answer: 0.647

Question: What about the relative viability (EKVX; first compound 0.4 µM) of the same molecule?
Answer: 1.22

Question: And the relative viability (EKVX; first compound 1.265 µM)?
Answer: 0.984

Question: And the relative viability (EKVX; first compound 4 µM)?
Answer: 0.848

Question: What about the relative viability (NCI-H1975; first compound 0.04 µM) of the same molecule?
Answer: 0.407

Question: What about the relative viability (NCI-H1975; first compound 0.1265 µM) of the same molecule?
Answer: 0.352

Question: What about the relative viability (NCI-H1975; first compound 0.4 µM) of the same molecule?
Answer: 0.422

Question: And the relative viability (NCI-H1975; first compound 1.265 µM)?
Answer: 0.374

Question: What about the relative viability (NCI-H1975; first compound 4 µM) of the same molecule?
Answer: 0.379

Question: What about the relative viability (NCI-H2087; first compound 0.04 µM) of the same molecule?
Answer: 1.05

Question: And the relative viability (NCI-H2087; first compound 0.1265 µM)?
Answer: 0.744

Question: What about the relative viability (NCI-H2087; first compound 0.4 µM) of the same molecule?
Answer: 0.92

Question: And the relative viability (NCI-H2087; first compound 1.265 µM)?
Answer: 0.917

Question: And the relative viability (NCI-H2087; first compound 4 µM)?
Answer: 0.753

Question: And the relative viability (HCC-827; first compound 0.04 µM)?
Answer: 1.04

Question: What about the relative viability (HCC-827; first compound 0.1265 µM) of the same molecule?
Answer: 0.877

Question: What about the relative viability (HCC-827; first compound 0.4 µM) of the same molecule?
Answer: 1.05

Question: And the relative viability (HCC-827; first compound 1.265 µM)?
Answer: 1.12

Question: What about the relative viability (HCC-827; first compound 4 µM) of the same molecule?
Answer: 1.03

Question: What about the relative viability (HCC-44; first compound 0.04 µM) of the same molecule?
Answer: 0.92

Question: And the relative viability (HCC-44; first compound 0.1265 µM)?
Answer: 0.855

Question: And the relative viability (HCC-44; first compound 0.4 µM)?
Answer: 0.903

Question: What about the relative viability (HCC-44; first compound 1.265 µM) of the same molecule?
Answer: 0.828

Question: What about the relative viability (HCC-44; first compound 4 µM) of the same molecule?
Answer: 0.857

Question: What about the relative viability (NCI-H1666; first compound 0.04 µM) of the same molecule?
Answer: 0.795

Question: And the relative viability (NCI-H1666; first compound 0.1265 µM)?
Answer: 0.701

Question: What about the relative viability (NCI-H1666; first compound 0.4 µM) of the same molecule?
Answer: 0.851

Question: And the relative viability (NCI-H1666; first compound 1.265 µM)?
Answer: 0.67

Question: And the relative viability (NCI-H1666; first compound 4 µM)?
Answer: 0.733

Question: What about the relative viability (NCI-H647; first compound 0.04 µM) of the same molecule?
Answer: 1.05

Question: And the relative viability (NCI-H647; first compound 0.1265 µM)?
Answer: 0.971

Question: What about the relative viability (NCI-H647; first compound 0.4 µM) of the same molecule?
Answer: 1.07

Question: What about the relative viability (NCI-H647; first compound 1.265 µM) of the same molecule?
Answer: 0.943

Question: What about the relative viability (NCI-H647; first compound 4 µM) of the same molecule?
Answer: 1.06

Question: What about the relative viability (201T; first compound 0.04 µM) of the same molecule?
Answer: 1.08

Question: What about the relative viability (201T; first compound 0.1265 µM) of the same molecule?
Answer: 1.11

Question: And the relative viability (201T; first compound 0.4 µM)?
Answer: 1.11

Question: What about the relative viability (201T; first compound 1.265 µM) of the same molecule?
Answer: 1.08

Question: And the relative viability (201T; first compound 4 µM)?
Answer: 1.13

Question: What about the relative viability (NCI-H1437; first compound 0.04 µM) of the same molecule?
Answer: 0.57

Question: And the relative viability (NCI-H1437; first compound 0.1265 µM)?
Answer: 0.577

Question: And the relative viability (NCI-H1437; first compound 0.4 µM)?
Answer: 0.507

Question: And the relative viability (NCI-H1437; first compound 1.265 µM)?
Answer: 0.445

Question: What about the relative viability (NCI-H1437; first compound 4 µM) of the same molecule?
Answer: 0.495

Question: What about the relative viability (H3255; first compound 0.04 µM) of the same molecule?
Answer: 0.627

Question: What about the relative viability (H3255; first compound 0.1265 µM) of the same molecule?
Answer: 0.764

Question: What about the relative viability (H3255; first compound 0.4 µM) of the same molecule?
Answer: 0.494

Question: And the relative viability (H3255; first compound 1.265 µM)?
Answer: 0.47

Question: What about the relative viability (H3255; first compound 4 µM) of the same molecule?
Answer: 0.713

Question: What about the relative viability (COR-L 105; first compound 0.04 µM) of the same molecule?
Answer: 0.941

Question: What about the relative viability (COR-L 105; first compound 0.1265 µM) of the same molecule?
Answer: 0.783

Question: And the relative viability (COR-L 105; first compound 0.4 µM)?
Answer: 0.931

Question: What about the relative viability (COR-L 105; first compound 1.265 µM) of the same molecule?
Answer: 0.713

Question: What about the relative viability (COR-L 105; first compound 4 µM) of the same molecule?
Answer: 0.651

Question: What about the relative viability (NCI-H2126; first compound 0.04 µM) of the same molecule?
Answer: 1.06

Question: What about the relative viability (NCI-H2126; first compound 0.1265 µM) of the same molecule?
Answer: 1.14

Question: And the relative viability (NCI-H2126; first compound 0.4 µM)?
Answer: 1.17

Question: And the relative viability (NCI-H2126; first compound 1.265 µM)?
Answer: 1.1

Question: What about the relative viability (NCI-H2126; first compound 4 µM) of the same molecule?
Answer: 1.13

Question: What about the relative viability (LU99A; first compound 0.04 µM) of the same molecule?
Answer: 1.19

Question: What about the relative viability (LU99A; first compound 0.1265 µM) of the same molecule?
Answer: 1.16

Question: What about the relative viability (LU99A; first compound 0.4 µM) of the same molecule?
Answer: 1.27

Question: And the relative viability (LU99A; first compound 1.265 µM)?
Answer: 1.22

Question: And the relative viability (LU99A; first compound 4 µM)?
Answer: 1.19
